What was measured:
Details in all cases: incubation time: 72 h
MDA-MB-453 [1] = assay: normalised viability (% of control), CellTiter-Blue; higher = more viable cells (about 100 = DMSO control)
Method: (§1)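 DSRT, CellTiter-Blue viability, 72 h incubation. Signal is normalised to DMSO and benzethonium chloride controls. Value is the normalised response at dose 9.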

HDQ-P1 [2] = assay: as above
Method: as §1

DU-4475 [3] = assay: as above
Method: as §1

CAL-51 [4] = assay: as above
Method: as §1

CAL-85-1 = assay: as above
Method: as §1

CAL-148 [5] = assay: as above
Method: as §1

SK-BR-3 = assay: normalised response (% of control), CellTiter-Glo; higher = more viable cells (100 = DMSO, 0 = benzethonium chloride kill control)
Method: (§2)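 DSRT, 72 h incubation, CellTox Green / CellTiter-Glo readout. Signal is normalised to DMSO and benzethonium chloride controls. Value is the normalised response at the highest dose.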

MCF-10A = assay: as above
Method: as §2

MDA-MB-453 [6] = assay: as above
Method: as §2

HCC1599 = assay: as above
Method: as §2

Hs578T = assay: as above
Method: as §2

CAL-120 = assay: as above
Method: as §2

HDQ-P1 [7] = assay: as above
Method: as §2

MDA-MB-436 = assay: as above
Method: as §2

BT-474 = assay: as above
Method: as §2

MDA-MB-468 = assay: as above
Method: as §2

DU-4475 [8] = assay: as above
Method: as §2

HCC1937 = assay: as above
Method: as §2

MDA-MB-231 = assay: as above
Method: as §2

CAL-51 [9] = assay: as above
Method: as §2

BT-549 = assay: as above
Method: as §2

HCC1143 = assay: as above
Method: as §2

CAL-148 [10] = assay: as above
Method: as §2

S=c1[nH]cnc2nc[nH]c12 [Mercaptopurine] (10000 nM)
normalised viability (MDA-MB-453 [1]): 100% | normalised viability (HDQ-P1 [2]): 90.3% | normalised viability (DU-4475 [3]): 102% | normalised viability (CAL-51 [4]): 75.1% | normalised viability (CAL-85-1): 80.3% | normalised viability (CAL-148 [5]): 86.6% | normalised response (SK-BR-3): 85.8% | normalised response (MCF-10A): 95.3% | normalised response (MDA-MB-453 [6]): 102% | normalised response (HCC1599): 27.5% | normalised response (Hs578T): 47.3% | normalised response (CAL-120): 27.3% | normalised response (HDQ-P1 [7]): 35.9% | normalised response (MDA-MB-436): 85.8% | normalised response (BT-474): 31.6% | normalised response (MDA-MB-468): 96.8% | normalised response (DU-4475 [8]): 56.5% | normalised response (HCC1937): 31.8% | normalised response (MDA-MB-231): 40.7% | normalised response (CAL-51 [9]): 80.5% | normalised response (BT-549): 94.8% | normalised response (HCC1143): 101% | normalised response (CAL-148 [10]): 85.5%

Clc1ccc(C(c2ccccc2Cl)C(Cl)Cl)cc1 (stereo not given) [Mitotane] (10000 nM)
normalised viability (MDA-MB-453 [1]): 89.7% | normalised viability (HDQ-P1 [2]): 109% | normalised viability (DU-4475 [3]): 97.4% | normalised viability (CAL-51 [4]): 109% | normalised viability (CAL-85-1): 89.7% | normalised viability (CAL-148 [5]): 110% | normalised response (SK-BR-3): 98.7% | normalised response (MCF-10A): 102% | normalised response (MDA-MB-453 [6]): 94.9% | normalised response (HCC1599): 113% | normalised response (Hs578T): 102% | normalised response (CAL-120): 99.2% | normalised response (HDQ-P1 [7]): 99.8% | normalised response (MDA-MB-436): 97.4% | normalised response (BT-474): 88.2% | normalised response (MDA-MB-468): 96.2% | normalised response (DU-4475 [8]): 95.9% | normalised response (HCC1937): 94.9% | normalised response (MDA-MB-231): 94.9% | normalised response (CAL-51 [9]): 64.2% | normalised response (BT-549): 95.6% | normalised response (HCC1143): 98.7% | normalised response (CAL-148 [10]): 99.1%

COc1cccc2cc(-c3nc([C@H]4CC[C@H](C(=O)O)CC4)n4ncnc(N)c34)[nH]c12 [OSI-027] (10000 nM)
normalised viability (MDA-MB-453 [1]): 12.5% | normalised viability (HDQ-P1 [2]): 20.2% | normalised viability (DU-4475 [3]): 30.1% | normalised viability (CAL-51 [4]): 14.5% | normalised viability (CAL-85-1): 25.2% | normalised viability (CAL-148 [5]): 10.6% | normalised response (SK-BR-3): 22.9% | normalised response (MCF-10A): 30.5% | normalised response (MDA-MB-453 [6]): 32.2% | normalised response (HCC1599): 74.2% | normalised response (Hs578T): 33.4% | normalised response (CAL-120): 30.1% | normalised response (HDQ-P1 [7]): 37.5% | normalised response (MDA-MB-436): 45.6% | normalised response (BT-474): 51.8% | normalised response (MDA-MB-468): 33.4% | normalised response (DU-4475 [8]): 61.2% | normalised response (HCC1937): 47.6% | normalised response (MDA-MB-231): 45.7% | normalised response (CAL-51 [9]): 38% | normalised response (BT-549): 24.8% | normalised response (HCC1143): 46.5% | normalised response (CAL-148 [10]): 39.2%

OC[C@H]1O[C@@H](n2cnc3c2N=CNC[C@H]3O)C[C@@H]1O [Pentostatin] (10000 nM)
normalised viability (MDA-MB-453 [1]): 106% | normalised viability (HDQ-P1 [2]): 99.7% | normalised viability (DU-4475 [3]): 103% | normalised viability (CAL-51 [4]): 88.3% | normalised viability (CAL-85-1): 108% | normalised viability (CAL-148 [5]): 124% | normalised response (SK-BR-3): 104% | normalised response (MCF-10A): 106% | normalised response (MDA-MB-453 [6]): 110% | normalised response (HCC1599): 108% | normalised response (Hs578T): 98% | normalised response (CAL-120): 101% | normalised response (HDQ-P1 [7]): 98.1% | normalised response (MDA-MB-436): 96.8% | normalised response (BT-474): 88.9% | normalised response (MDA-MB-468): 103% | normalised response (DU-4475 [8]): 99.8% | normalised response (HCC1937): 98.9% | normalised response (MDA-MB-231): 103% | normalised response (CAL-51 [9]): 90.2% | normalised response (BT-549): 92.5% | normalised response (HCC1143): 99.1% | normalised response (CAL-148 [10]): 105%

N#CC[C@H](C1CCCC1)n1cc(-c2ncnc3[nH]ccc23)cn1 [Ruxolitinib] (10000 nM)
normalised viability (MDA-MB-453 [1]): 66.1% | normalised viability (HDQ-P1 [2]): 107% | normalised viability (DU-4475 [3]): 113% | normalised viability (CAL-51 [4]): 87.3% | normalised viability (CAL-85-1): 115% | normalised viability (CAL-148 [5]): 106% | normalised response (SK-BR-3): 91.5% | normalised response (MCF-10A): 72.5% | normalised response (MDA-MB-453 [6]): 87.6% | normalised response (HCC1599): 94.4% | normalised response (Hs578T): 102% | normalised response (CAL-120): 77.7% | normalised response (HDQ-P1 [7]): 86.3% | normalised response (MDA-MB-436): 88.4% | normalised response (BT-474): 81.8% | normalised response (MDA-MB-468): 88.7% | normalised response (DU-4475 [8]): 98.4% | normalised response (HCC1937): 96.9% | normalised response (MDA-MB-231): 86% | normalised response (CAL-51 [9]): 88.9% | normalised response (BT-549): 101% | normalised response (HCC1143): 93.3% | normalised response (CAL-148 [10]): 98.2%

C=CC[C@@H]1/C=C(\C)C[C@H](C)C[C@H](OC)[C@H]2O[C@@](O)(C(=O)C(=O)N3CCCC[C@H]3C(=O)O[C@H](/C(C)=C/[C@@H]3CC[C@@H](O)[C@H](OC)C3)[C@H](C)[C@@H](O)CC1=O)[C@H](C)C[C@@H]2OC [Tacrolimus] (10000 nM)
normalised viability (MDA-MB-453 [1]): 98.6% | normalised viability (HDQ-P1 [2]): 136% | normalised viability (DU-4475 [3]): 107% | normalised viability (CAL-51 [4]): 95% | normalised viability (CAL-85-1): 100% | normalised viability (CAL-148 [5]): 115% | normalised response (SK-BR-3): 89.3% | normalised response (MCF-10A): 103% | normalised response (MDA-MB-453 [6]): 101% | normalised response (HCC1599): 119% | normalised response (Hs578T): 94.5% | normalised response (CAL-120): 105% | normalised response (HDQ-P1 [7]): 103% | normalised response (MDA-MB-436): 98% | normalised response (BT-474): 88.5% | normalised response (MDA-MB-468): 85.4% | normalised response (DU-4475 [8]): 103% | normalised response (HCC1937): 94.3% | normalised response (MDA-MB-231): 91.5% | normalised response (CAL-51 [9]): 104% | normalised response (BT-549): 90.8% | normalised response (HCC1143): 86.8% | normalised response (CAL-148 [10]): 103%

CO[C@H]1C[C@@H]2CC[C@@H](C)[C@@](O)(O2)C(=O)C(=O)N2CCCC[C@H]2C(=O)O[C@H]([C@H](C)C[C@@H]2CC[C@@H](OC(=O)C(C)(CO)CO)[C@H](OC)C2)CC(=O)[C@H](C)/C=C(\C)[C@@H](O)[C@@H](OC)C(=O)[C@H](C)C[C@H](C)/C=C/C=C/C=C/1C [Temsirolimus] (100 nM)
normalised response (SK-BR-3): 53% | normalised response (MCF-10A): 88.6% | normalised response (MDA-MB-453 [6]): 58.9% | normalised response (HCC1599): 90.8% | normalised response (Hs578T): 67.1% | normalised response (CAL-120): 65.4% | normalised response (HDQ-P1 [7]): 77.9% | normalised response (MDA-MB-436): 83% | normalised response (BT-474): 84.3% | normalised response (MDA-MB-468): 56.9% | normalised response (DU-4475 [8]): 73.6% | normalised response (HCC1937): 66.8% | normalised response (MDA-MB-231): 90.2% | normalised response (CAL-51 [9]): 61% | normalised response (BT-549): 56.3% | normalised response (HCC1143): 65.2% | normalised response (CAL-148 [10]): 58.1%
